Data reported in article PMC12881674, “Activation of TRPV3 channels in bladder cancer cells stimulates ATP release” (Molecular Pharmacology, 2025).

Tested on: KU-19-19 cells
Assay: MTT cell viability/proliferation assay
Type: cell-based, human
Conditions: 24 hours, concentrations up to 50 μM
Description: To monitor a potential cytotoxicity of individual compounds, 3-(4,5-dimethylthiazol-2-yl)-2,5-diphenyltetrazolium bromide (MTT) assays were performed to assess cell viability and metabolic activity. Cells (5000 per/well) were seeded in PLL-coated 96-well plates and allowed to adhere overnight. After 24 hours, culture medium was exchanged for medium containing indicated drugs, and cells were cultured for another 24 hours. Following treatment with the compounds, 100 μL of medium containing 0.5 mg/mL MTT was added, and cells were incubated for additional 3 hours. The medium was removed, and 100 μL of DMSO was added to dissolve formazan crystals. Absorbance was measured at 560 nm, with a reference wavelength at 670 nm using a plate reader (Polarstar Omega; BMG Labtech). Cell viability was calculated relative to untreated control cells.
Fig. 4 TRPV3 activation by AV3-1 was enhanced by cholesterol supplementation and causes ATP release in KU-19-19 bladder cancer cells. […] Current amplitudes were recorded using voltage ramps from −100 mV to +100 mV (500-millisecond duration) and expressed as current density (pA/pF) measured at +100 mV and −100 mV. (C) Quantification of current densities (pA/pF) at −100 mV (inward current) and +100 mV (outward current) at the time points (1, 2) as indicated in (A, B). […]

## COC(=O)C12CN(Cc3ccccc3)CC1(C(=O)OC)CN(Cc1ccccc1)C2 (stereo not shown) [AV3-1]
  toxicity (cell viability and proliferation, MTT): only minor toxicity
